Here are results for 29 molecules from US20230000842A1, “METHODS OF TREATING CARTILAGE DISORDERS THROUGH INHIBITION OF CLK AND DYRK” (SAMUMED, LLC, priority 2019, published 2023).

Bounds are passed on as bounds.

Assay [1] has as its system Wnt pathway activity (SW480 colon carcinoma cells stably expressing the Sp5-Luc reporter). Kind of assay: Wnt pathway activity screening assay (Sp5-Luc reporter gene assay). As to conditions: Homo sapiens, SW480, Table 4; SW480 cells stably expressing Sp5-Luc reporter, 10-point dose-response from 10 μM, 36 to 48 hours. Background: A reporter such as luciferase makes a cellular process visible.

The test system of assay [2] is MMP-3 levels in supernatant of chondrocytes stimulated with IL1-β. Nature of the assay: Chondrocyte protection assay compound screening (MMP-3 LANCE Ultra). To be noted: Homo sapiens, Chondrocyte, IL1-β 10 ng/mL overnight, 11-point curves from 3 μM to 0.05 nM; for Emax: read-out: Maximum % Inhibition. Format: cell-based, human. On the procedure: Human Chondrocyte Cell Culture: Primary human chondrocytes were purchased from Lonza (Walkersville, Md.) and expanded in Chondrocyte Growth Media (CGM, Lonza). Cells between passage 2 and 5 were used for the experiments.
Chondrocytes were plated at 8,000 cells/well in 40 μL/well Chondrocyte Differentiation Medium (Lonza; 500 mL Basal Medium, 25 mL FBS, 0.5 mL GA-1000, 1 mL R3-IGF, 2.5 mL bFGF, 0.5 mL Transferrin, and 1 mL Insulin). After 2 hours of incubation at 37° C. and 5% CO2, IL1-β (Peprotech, Rocky Hill, N.J.) was added to a final concentration of 10 ng/mL. 11 wells in 1 row were left unstimulated for normalization and calculating EC50 values. Cells were incubated at 37° C. and 5% CO2 overnight. Assay plates are spun, 25 μl of supernatant media was collected using (S2 pipettor, Apricot Designs). Cells were lysed using 10 μL of (Cell Titer-Glo, Promega). Luminescent signal detected using an En Vision Multilabel reader (Perkin Elmer). MMP-3 levels were measured in supernatant. Supernatant diluted 1:7 in DMEM. MMP-3 levels in the supernatant were measured using MMP-3 LANCE Ultra detection kit (Perkin Elmer). Briefly, 5 μL of diluted supernatant was transferred to low-volume 384 well plates using (S2 pipettor, Apricot Designs). A standard curve was prepared using MMP-3 analyte (range […]). 1.7 μL of 8× mix of Eu-labelled anti-MMP-3 antibody and ULight labelled anti-MMP-3 antibody was added to the plates using Mantis Liquid handler (Formulatrix). Plates were incubated overnight at room temperature. LANCE signal was detected using an EnVision Multilabel reader (Perkin Elmer), equipped with TR-FRET using excitation wavelength of 320 nm and two emission wavelengths of 615 nm and 665 nm. Data was analyzed according to the kit protocol, using the ratio of […] and the standard curve values were used to calculate the amount of MMP3 in the […] (in pg/ml). The normalized averages (fold change over IL1-β stimulated) for each compound concentration were calculated. EC50 and maximum % inhibition values were calculated using the dose-response nonlinear regression curve-fit in Dotmatics.
For orientation: Time-resolved FRET reads energy transfer from a long-lived donor to a nearby acceptor.

The target in assay [3] is CLK2 kinase (Homo sapiens, UniProt P49760). Nature of the assay: CLK2 kinase activity assay (Z-lyte FRET).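 Further: FRET read-out as coumarin to fluorescein emission ratio, unphosphorylated peptide as 0% and phosphorylated peptide as 100% controls, duplicate reactions, non-linear regression fit of dose-response curves.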 The format is biochemical. As to conditions: Z-lyte Ser/Thr 6 peptide, 60 μM ATP, 1 h at room temperature.
Sequence of CLK2 kinase (P49760 whole entry): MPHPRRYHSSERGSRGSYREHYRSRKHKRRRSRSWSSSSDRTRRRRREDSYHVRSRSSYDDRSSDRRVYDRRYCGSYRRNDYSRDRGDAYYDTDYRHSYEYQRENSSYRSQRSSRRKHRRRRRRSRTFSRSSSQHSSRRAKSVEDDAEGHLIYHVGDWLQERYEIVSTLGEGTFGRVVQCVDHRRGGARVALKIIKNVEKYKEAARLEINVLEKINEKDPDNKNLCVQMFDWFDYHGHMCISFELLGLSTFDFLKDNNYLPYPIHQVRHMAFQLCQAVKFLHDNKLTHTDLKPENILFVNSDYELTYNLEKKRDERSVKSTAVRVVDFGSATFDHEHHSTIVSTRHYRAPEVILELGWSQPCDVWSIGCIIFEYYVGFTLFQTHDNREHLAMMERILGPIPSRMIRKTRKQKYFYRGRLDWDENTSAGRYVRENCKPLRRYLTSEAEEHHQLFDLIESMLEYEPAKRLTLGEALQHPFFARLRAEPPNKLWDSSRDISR
Assay [4] deals with primary human mesenchymal stem cells (hMSCs). Nature of the assay: Chondrogenesis screening using primary human mesenchymal stem cells. To be noted: Homo sapiens, Mesenchymal stem cells, hMSC chondrogenesis; for Emax: maximum activity relative to TGF-β3 (10 ng/mL) positive control, read-out: Max. Activity as % TGF-β3 activity; for EC50: concentration required to induce 50% levels of chondrogenesis with TGF-β3 as positive control, read-out: Conc (nM) of 50% TGF-β3 activity. The format is cell-based. In short, it runs like this: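 Derived values are EC50 for 50% chondrogenesis, maximal activity and the dose giving it. These come from nodule area in passage 3–6 primary hMSCs, expressed as fold change over the mean of 3 same-plate DMSO wells, 2–3 replicates per concentration. TGF-β3 served as positive control.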

In assay [5] the target is CLK3 kinase (Homo sapiens, UniProt P49761). Nature of the assay: CLK3 kinase activity assay (Z-lyte FRET).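 Further: kinase activity read as coumarin/fluorescein emission ratio by FRET, unphosphorylated peptide as 0% and phosphorylated peptide as 100% control, values from non-linear regression of dose-response curves.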 As to conditions: Z-lyte Ser/Thr 18 peptide, 156 μM ATP, 1 h at room temperature. The format is biochemical.
Sequence of CLK3 kinase (P49761 whole entry): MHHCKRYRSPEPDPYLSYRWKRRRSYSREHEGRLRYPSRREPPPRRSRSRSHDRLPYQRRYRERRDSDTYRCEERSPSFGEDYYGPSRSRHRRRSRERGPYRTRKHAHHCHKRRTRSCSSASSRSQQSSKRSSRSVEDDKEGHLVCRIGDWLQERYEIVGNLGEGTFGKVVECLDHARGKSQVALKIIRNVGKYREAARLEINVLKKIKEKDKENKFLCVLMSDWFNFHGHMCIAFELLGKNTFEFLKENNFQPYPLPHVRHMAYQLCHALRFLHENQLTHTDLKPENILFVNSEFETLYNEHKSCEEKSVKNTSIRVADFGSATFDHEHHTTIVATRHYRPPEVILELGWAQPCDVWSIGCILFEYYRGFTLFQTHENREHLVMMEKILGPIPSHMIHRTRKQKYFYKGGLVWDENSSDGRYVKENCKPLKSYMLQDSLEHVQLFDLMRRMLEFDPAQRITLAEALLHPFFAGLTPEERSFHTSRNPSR

In turn, `Cc1n[nH]c2ccc(-c3cncc(OC[C@@H](N)Cc4ccccc4)c3)cc12` [compound 35] registered an EC50 in assay [1] of 262 nM. Besides, in assay [2], the EC50 was not below 3000 nM and the Emax turned out to be 99.3%.
As to `Fc1ccc(-c2cccc3[nH]c(-c4n[nH]c5ccc(-c6cncnc6)nc45)nc23)cc1` [compound 628], the EC50 in assay [1] is more than 10000 nM; in assay [3], 5 nM; in assay [2], not below 3000 nM. In addition, the Emax in assay [2] is 54.3%.
Turning to `COc1cncc(C#Cc2c[nH]nc2C(=O)Nc2ccc(OCCN3CCCC3)nc2)c1` [compound 31], the EC50 is 1210 nM in assay [1], 28 nM in assay [3] and not below 3000 nM in assay [2]. Moreover, the Emax in assay [2] was determined as 2.4%.
Taken in the same sequence, the figures for `O=C(Nc1cncc(-c2cc3c(-c4cc5c(-c6cccc(F)c6)ccnc5[nH]4)n[nH]c3cn2)c1)C1CC1` [compound 636] were 97 nM, 9 nM, 298 nM and 64.5%.
As to `O=C(NC1C[C@@H]1c1ccccc1)c1n[nH]c2ccc(-c3cccnc3)cc12` (some centres unmarked) [compound 59], the EC50 came out at 1390 nM in assay [1] and 1.6 nM in assay [2]. Moreover, the Emax in assay [2] is 99.2%.
On to `O=C(Nc1cccnc1)Nc1c[nH]nc1C(=O)Nc1ccc(C(F)(F)F)nc1` [compound 16], for which the EC50 stood at 679 nM in assay [1], 95 nM in assay [3] and 8.7 nM in assay [2]. In addition, the Emax in assay [2] was 99.5%.
Taken in the same sequence, the figures for `O=C(Nc1cncc(-c2ccc3[nH]nc(-c4nc5c(-c6ccccn6)ccnc5[nH]4)c3n2)c1)c1ccccc1` [compound 630] were more than 10000 nM, 8 nM, 5.1 nM and 67%.
The corresponding values for `COc1cccc(-c2cncc3[nH]c(-c4n[nH]c5ccc(-c6cncc(NC(=O)C7CCCCC7)c6)nc45)nc23)c1` [compound 627] are more than 10000 nM, 7 nM, not below 3000 nM and 90.7%.
Consider `O=C(Nc1cncc(-c2ccc3[nH]nc(-c4nc5c(-c6cccc(F)c6)cccc5[nH]4)c3n2)c1)C1CC1` [compound 629], for which the EC50 in assay [1] is 1080 nM; in assay [3], 9 nM; in assay [2], 0.2 nM. Further, the Emax in assay [2] is 70%.
Taken in the same sequence, the figures for `COc1cncc(-c2ccc3[nH]nc(-c4nc5c(N6CCCCC6)ccnc5[nH]4)c3n2)c1` [compound 632] were more than 10000 nM, 3 nM, 123 nM and 72.2%.
The corresponding values for `COc1cncc(C#Cc2c[nH]nc2C(=O)Nc2ccc(OC3CCN(C)CC3)nc2)c1` [compound 30] are 3570 nM, 18 nM, not below 3000 nM and 3.4%.
Consider `O=C(NC1C[C@@H]1c1ccccc1)c1n[nH]c2ccc(-c3cncc(CN4CCCCC4)c3)cc12` (some centres unmarked) [compound 76], for which the EC50 in assay [1] is 1030 nM; in assay [2], 0.4 nM. For the same molecule, the Emax in assay [2] was 97.9%.
For `O=C(Nc1cccnc1)c1n[nH]cc1C#Cc1cncc(OC2CCNCC2)c1` [compound 32], the results for the EC50 in assay [1], in assay [3] and in assay [2] were 1270 nM, 38 nM and 0.2 nM, respectively. Also, in assay [2], the Emax is 77.8%.
For the molecule `O=C(Nc1cc2cc(-c3cncs3)ccc2cn1)C1(F)CCCCC1` [compound 637], the EC50 is more than 10000 nM in assay [1], 1900 nM in assay [3] and not below 3000 nM in assay [2]. Also, in assay [2], the Emax came out at 39.1%.
The corresponding values for `O=C(Nc1cncc(-c2ccc3[nH]nc(-c4nc5c(-c6cccs6)cccc5[nH]4)c3n2)c1)C1CC1` [compound 631] are 3380 nM, 10 nM, 6.7 nM and 72%.
`CN(C)CCNc1cc(F)cc(-c2cccc3[nH]c(-c4n[nH]c5ncc(-c6ccncc6)cc45)cc23)c1` [compound 635]: the EC50 stood at 6070 nM in assay [1], 10 nM in assay [3] and 4 nM in assay [2]. Further, the Emax in assay [2] was determined as 78.5%.
Taken in the same sequence, the figures for `CC(F)(F)CN1CCC(C(=O)Nc2cc3cc(-c4cnco4)cnc3cn2)CC1` [compound 642] were more than 10000 nM, 9780 nM, not below 3000 nM and 29.5%.
Regarding `Cc1n[nH]c2cc(F)c(-c3cncc(OC4CCNC[C@@H]4F)n3)cc12` (some centres unmarked) [compound 46], the EC50 was 630 nM in assay [1] and 1050 nM in assay [2]. Moreover, the Emax was 43.8% in assay [4] and 100% in assay [2].
`CN1CCC(C(=O)Nc2cc3cc(-c4cnsc4)cnc3cn2)CC1` [compound 639]: the results for the EC50 in assay [1] and in assay [2] were more than 10000 nM and not below 3000 nM, respectively. In assay [2], the Emax was found to be 43.7%.
The corresponding values for `Cc1n[nH]c2ccc(-c3cncc(NC(CO)Cc4cccc(C(F)(F)F)c4)n3)cc12` (centres unmarked) [compound 51] are 809 nM, not below 3000 nM and 48.1%.
With `Fc1cccc(-c2cncc3[nH]c(-c4n[nH]c5ccc(-c6cnccn6)nc45)nc23)c1` [compound 625], the EC50 was more than 10000 nM in assay [1], 5 nM in assay [3] and not below 3000 nM in assay [2]. The Emax in assay [2] stood at 70.9%.
As for `O=C(Nc1cc2cc(-c3cnco3)cnc2cn1)C1CCNCC1` [compound 641], the EC50 in assay [1] is more than 10000 nM; in assay [2], 35.8 nM. The Emax in assay [2] is 48.4%.
Regarding `O=C(Nc1cncc(-c2cnc3[nH]nc(-c4cc5cnccc5[nH]4)c3c2)c1)c1ccccc1` [compound 435], the EC50 in assay [1] was more than 10000 nM; in assay [3], 2 nM; in assay [4] it was 30 nM; in assay [5] it was 46 nM. In addition, the Emax in assay [4] was 69.9%.
Taken in the same sequence, the figures for `Cc1cn(-c2nccc3[nH]c(-c4n[nH]c5ccc(-c6cncc(NC(=O)CC(C)C)c6)cc45)nc23)cn1` [compound 224] were 10.4 nM, 12 nM, 30 nM, 56 nM and 73.7%.
Taken in the same sequence, the figures for `O=C(Nc1cncc(-c2ccc3[nH]nc(-c4nc5c(-c6ccc(Cl)s6)ccnc5[nH]4)c3n2)c1)C1CCC1` [compound 269] were 354 nM, 12 nM, 10 nM, 183 nM and 102%.
As for `CCC(=O)Nc1cncc(-c2ccc3[nH]nc(-c4cc5c(-c6cc(F)cc(CNS(C)(=O)=O)c6)cncc5[nH]4)c3c2)c1` [compound 517], the EC50 in assay [1] is 244 nM; in assay [3] it was 8 nM; in assay [5], 216 nM. Also, the Emax in assay [4] came to 29.4%.
The corresponding values for `CN1CCN(c2cncc3[nH]c(-c4n[nH]c5ccc(-c6cncc(N)c6)cc45)cc23)CC1` [compound 470] are 8250 nM, 2 nM, 40 nM and 50.9%.
The corresponding values for `CC(C)CC(=O)Nc1cncc(-c2ccc3[nH]nc(-c4nc5c(-c6cc(F)cc(NCCN(C)C)c6)cncc5[nH]4)c3c2)c1` [compound 281] are 22 nM, 6 nM, 25 nM and 82%.
The corresponding values for `CCCCC(=O)Nc1cncc(-c2cnc3[nH]nc(-c4cc5cnccc5[nH]4)c3c2)c1` [compound 421] are 1470 nM, 3 nM, 83 nM and 30.8%.
